Consider eight compounds from DBAASP.

Some test systems named below: Streptococcus mutans; Candida albicans; Escherichia coli UB1005; Candida krusei ATCC 6258; Candida albicans SC5314.
Holding throughout (test): ≥ marks a high value that may be exact or a test limit, other limits are often not marked, values filed in µg/mL are converted to µM
In assay [1] the test system is Salmonella typhimurium CMCC 50013.
Assay [2] has as its system Listeria monocytogenes CMCC 54002.
The subject of assay [3] is Staphylococcus aureus ATCC 29213.
In assay [4] the test system is Shigella dysenteriae CMCC 51302.
Assay [5] concerns Escherichia coli ATCC 25922.
Assay [6] has as its system Pseudomonas syringae pv. syringae EPS 94.
Assay [7] concerns Erwinia amylovora PMV 6076.
The test system of assay [8] is Enterococcus faecium ATCC 700221.
The subject of assay [9] is Klebsiella pneumoniae ATCC 700603.
Assay [10] has as its system Staphylococcus aureus ATCC 33591.
The test system of assay [11] is Acinetobacter baumannii ATCC BAA-1605.
Assay [12] has as its system Pseudomonas aeruginosa ATCC 27853.
Assay [13] has as its system Staphylococcus aureus ATCC 25923.
The subject of assay [14] is Enterococcus faecalis ATCC 29212.
Assay [15] relates to Staphylococcus aureus USA 300.
The test system of assay [16] is Pseudomonas aeruginosa ATCC 9027.
Assay [17] relates to Staphylococcus epidermidis.
The test system of assay [18] is Salmonella enterica serovar Typhimurium.
For assay [19], the system named is Staphylococcus aureus USA 100.
Assay [20] deals with Candida albicans ATCC 90028.
Assay [21] deals with Pseudomonas aeruginosa H103.
Assay [22] has as its system Escherichia coli KCTC 1682.
For assay [23], the system named is Enterococcus faecalis KCTC 2011.
Assay [24] has as its system Staphylococcus aureus KCTC 1621.
Assay [25] concerns Pseudomonas aeruginosa KCTC 1637.
Assay [26] deals with Salmonella typhimurium KCTC 1926.
In assay [27] the test system is Pseudomonas aeruginosa CCARM 2095.
Assay [28] has as its system Escherichia coli CCARM 1229.
Assay [29] concerns Salmonella typhimurium CCARM 8009.
In assay [30] the test system is Bacillus subtilis KCTC 3068.
The test system of assay [31] is Acinetobacter baumannii CCARM 12035.
Assay [32] concerns Bacillus subtilis KCTC 1998.
For assay [33], the system named is Pseudomonas aeruginosa ATCC 15692.
Assay [34] deals with Candida parapsilosis ATCC 22019.

Converted amounts (≈) assume the structure as drawn.

As a reminder, the MIC is the lowest concentration that inhibits growth of the organism.

In the case of `CC(C)C[C@H](NC(=O)CN)C(=O)N[C@@H](CCCN=C(N)N)C(=O)N[C@@H](CCCN=C(N)N)C(=O)N[C@@H](C)C(=O)N[C@@H](CC(C)C)C(=O)N[C@@H](CC(C)C)C(=O)N[C@@H](CCCN=C(N)N)C(=O)N[C@@H](CC(C)C)C(=O)N[C@@H](CC(C)C)C(=O)N[C@@H](CCCN=C(N)N)C(=O)N[C@@H](CO)C(=O)N[C@@H](CC(C)C)C(=O)N[C@@H](CCCN=C(N)N)C(=O)N[C@@H](CCCN=C(N)N)C(=O)N[C@@H](CC(C)C)C(=O)N[C@@H](CC(C)C)C(=O)N[C@@H](CC(C)C)C(=O)N[C@@H](CCCN=C(N)N)C(=O)N[C@@H](C)C(=O)O` [GLRRALLRLLRSLRRLLLRA], the minimal inhibitory concentration (MIC) in assay [1] amounted to 4 µM (≈ 9.66 µg/mL); against Streptococcus mutans it was 8 µM (≈ 19.3 µg/mL); in assay [2] it was 16 µM (≈ 38.7 µg/mL); in assay [3], 32 µM (≈ 77.3 µg/mL); in assay [4], 8 µM (≈ 19.3 µg/mL); in [5], 8 µM (≈ 19.3 µg/mL).

In the case of `CC[C@H](C)[C@H](NC(=O)[C@H](CCCCN)NC(=O)[C@H](CCCCN)NC(=O)[C@H](Cc1ccccc1)NC(=O)[C@H](CC(C)C)NC(=O)[C@H](CCCCN)NC(=O)[C@H](CCCCN)NC(=O)[C@H](C)NC(=O)[C@@H]1CCCN1C(=O)CNC(=O)[C@H](C)NC(=O)[C@H](CC(C)C)NC(=O)[C@H](Cc1ccc(O)cc1)NC(=O)[C@H](CCCCN)NC(=O)[C@H](CC(C)C)NC(=O)[C@@H](NC(=O)[C@H](CCCCN)NC(=O)[C@H](CCCCN)NC(=O)[C@H](Cc1ccccc1)NC(=O)[C@H](CC(C)C)NC(=O)[C@H](CCCCN)NC(=O)[C@@H](N)CCCCN)[C@@H](C)CC)C(=O)N[C@@H](CC(C)C)C(=O)N[C@@H](CCCCN)C(=O)N[C@@H](Cc1ccc(O)cc1)C(=O)N[C@@H](CC(C)C)C(=O)O` [KKLFKKILKYLAGPAKKLFKKILKYL], the MIC in assay [6] and in assay [7] was 3.54 µM (≈ 11 µg/mL) each time.

Regarding `CC[C@H](C)[C@H](NC(=O)[C@H](CCCN=C(N)N)NC(=O)[C@H](CCCCN)NC(=O)[C@H](Cc1ccccc1)NC(=O)[C@H](CC(C)C)NC(=O)[C@H](CCCCN)NC(=O)[C@@H](N)CCCN=C(N)N)C(=O)N[C@@H](CC(C)C)C(=O)N[C@@H](CCCCN)C(=O)N[C@@H](Cc1ccc(O)cc1)C(=O)N[C@@H](CC(C)C)C(N)=O` [RKLFKRILKYL], the MIC in assay [8] is not below 186 µM; in [9], 93 µM (≈ 137 µg/mL); in assay [5], 186 µM (≈ 275 µg/mL); in [10], not below 93 µM; in [11], not below 46.7 µM; in assay [12], 93 µM (≈ 137 µg/mL).

`CC[C@H](C)[C@H](NC(=O)[C@@H](NC(=O)[C@H](Cc1c[nH]c2ccccc12)NC(=O)[C@@H](NC(=O)[C@@H](N)CCCN=C(N)N)[C@@H](C)CC)C(C)C)C(=O)N[C@@H](CCCN=C(N)N)C(=O)N[C@@H](Cc1c[nH]c2ccccc12)C(=O)N[C@@H](CCCN=C(N)N)C(N)=O` [RIWVIRWR]: the MIC in assay [13] turned out to be 3.38 µM (≈ 4 µg/mL); against Candida albicans it was 13.5 µM (≈ 16 µg/mL); in assay [14], 6.75 µM (≈ 7.99 µg/mL); in [15], 12.5 µM (≈ 14.8 µg/mL); in [16] it was 25 µM (≈ 29.6 µg/mL); in assay [17], 3.38 µM (≈ 4 µg/mL). Further, the MIC with Escherichia coli UB1005 was 3.38 µM (≈ 4 µg/mL); in assay [18], 13.5 µM (≈ 16 µg/mL); in assay [19], 12.5 µM (≈ 14.8 µg/mL); in [20], not below 100 µM; in assay [21], 13.5 µM (≈ 16 µg/mL).

Regarding `CC(C)[C@H](NC(=O)[C@H](C)N)C(=O)N[C@@H](C)C(=O)N[C@H](C(=O)N[C@H](C(=O)NCC(=O)N[C@@H](CCC(N)=O)C(=O)N[C@@H](C)C(=O)N[C@@H](C)C(=O)N[C@H](C(=O)N[C@H](C(=O)N[C@H](C(=O)N[C@@H](CCCCN)C(N)=O)C(C)C)C(C)C)[C@@H](C)O)C(C)C)C(C)C` [AVAVVGQAATVVK], the MIC in [22], in assay [23], in assay [24], in [25], in assay [26] and in assay [27] was not below 128 µM each time. Moreover, the minimal inhibitory concentration (MIC) in assay [28], in [29], in assay [30] and in [31] was not below 128 µM in each case.

As to `CC[C@H](C)[C@H](NC(=O)[C@H](CCCCN)NC(=O)[C@H](CO)NC(=O)[C@@H]1CCCN1C(=O)[C@H](CC(C)C)NC(=O)[C@H](CCCCN)NC(=O)[C@@H]1CCCN1C(=O)[C@H](CC(C)C)NC(=O)[C@H](CCCN=C(N)N)NC(=O)[C@H](CCCCN)NC(=O)[C@H](Cc1ccccc1)NC(=O)[C@@H](NC(=O)[C@H](CCCCN)NC(=O)[C@H](CCCCN)NC(=O)[C@H](C)N)C(C)C)C(=O)N[C@@H](Cc1c[nH]c2ccccc12)C(=O)N[C@@H](CC(N)=O)C(=O)N[C@@H](Cc1c[nH]c2ccccc12)C(=O)N[C@@H](CCCCN)C(N)=O` [AKKVFKRLPKLPSKIWNWK], the MIC in assay [13] was determined as 8 µM (≈ 18.9 µg/mL); in assay [32], 1 µM (≈ 2.37 µg/mL); in [5], 2 µM (≈ 4.73 µg/mL); in assay [33] it was 2 µM (≈ 4.73 µg/mL).

Turning to `CC[C@H](C)[C@H](NC(=O)[C@H](CCCCN)NC(=O)[C@H](CCCCN)NC(=O)[C@H](CC(C)C)NC(=O)[C@H](CC(C)C)NC(=O)[C@H](CCCCN)NC(=O)[C@H](CCCCN)NC(=O)[C@@H](NC(=O)[C@@H](NC(=O)[C@H](CC(=O)O)NC(=O)[C@H](Cc1ccccc1)NC(=O)[C@H](CC(C)C)NC(=O)CN)C(C)C)[C@@H](C)CC)C(=O)N[C@@H](CCCCN)C(=O)NCC(=O)N[C@@H](CC(C)C)C(N)=O` [GLFDVIKKLLKKIKGL], the minimum inhibitory concentration (MIC) in [8] was determined as 1.6 µM (≈ 2.9 µg/mL); in [5], 3.1 µM (≈ 5.62 µg/mL); in assay [10], 3.1 µM (≈ 5.62 µg/mL); in assay [12], 12.5 µM (≈ 22.7 µg/mL).

With `CC[C@H](C)[C@H](NC(=O)CN)C(=O)N[C@@H](Cc1c[nH]c2ccccc12)C(=O)N[C@@H](CCCCN)C(=O)N[C@@H](CCCCN)C(=O)N[C@@H](Cc1c[nH]c2ccccc12)C(=O)N[C@H](C(=O)N[C@@H](CCCCN)C(=O)N[C@@H](CCCCN)C(=O)N[C@@H](Cc1c[nH]c2ccccc12)C(=O)N[C@@H](CC(C)C)C(=O)N[C@@H](CCCCN)C(=O)N[C@@H](CCCCN)C(=O)N[C@@H](CC(C)C)C(=O)N[C@@H](CCCCN)C(=O)N[C@@H](CC(N)=O)C(=O)N[C@@H](CC(C)C)C(=O)N[C@@H](Cc1ccccc1)C(N)=O)[C@@H](C)CC` [GIWKKWIKKWLKKLKNLF], the MIC was determined as 6.79 µM (≈ 16 µg/mL) in the assay with Candida krusei ATCC 6258, 13.6 µM (≈ 32 µg/mL) in the assay on Candida albicans SC5314, 13.6 µM (≈ 32 µg/mL) in assay [34] and 27.1 µM (≈ 64 µg/mL) in assay [20].
